Results: patent US20040191207A1, “ALPHA-HYDROXY ACID ESTER DRUG DELIVERY COMPOSITIONS AND METHODS OF USE” (priority 2003, published 2004)
Where two headings read alike, the source gives them in different places.

Columns and labels:
[1] = Description: Mixtures were based on weight/weight and ranged from 5% drug/95% unneutralized Imwitor™ 380 to 10% drug/90% unneutralized Imwitor™ 380. The samples were prepared in scintillation vials (Research Products International) containing a stirbar to ensure adequate mixing.
[2] = remark: listed apart in the source
Description: Various pharmaceutical drug actives and prodrugs were screened to test for solubility in the compositions including alpha-hydroxy acid esters. Solubility was determined by adding various amounts of the drug to a composition including alpha-hydroxy acid esters, mixing, and then visually determining the solubility. The composition selected for the screening was Imwitor™ 380, a partially neutralized mixture of citric acid/lactic acid esters of partial glycerides. Imwitor™ 380 contains approximately 60% citric acid/lactic acid esters of partial glycerides, less than 32% 1-monoglyceride, and not more than 5% glycerol (Product Information Sheet, 26.13.199e/07.98; Sasol).
Mixtures were based on weight/weight and ranged from 5% drug/95% Imwitor™ 380 to 15% drug/85% Imwitor™ 380. The samples were prepared in 12 ml glass vials, containing a stirbar to ensure adequate mixing, and sealed with Teflon lined caps (National Scientific Co.; vial: part no B7800-12; cap: 15-425).

SMILES | Solubility [1] | Solubility [2]
CCOC(=O)C(C)(C)Oc1ccc(Cl)cc1 [Clofibrate, clofibrate] | >100 mg/gm | >150 mg/gm
CCCC(CCC)C(=O)O [Valproic Acid, valproic acid] | >100 mg/gm | >150 mg/gm
